Experimental data: paper PMC7803973, “Structural basis of malaria parasite phenylalanine tRNA-synthetase inhibition by bicyclic azetidines” (Nature Communications, 2021)
“And” between values parts separate entries of the source, which are not always exact repeats. Equal values may be shown once.

Experiments:
[1] = tested on: Plasmodium falciparum strain K1; experiment: microbe, parasite or virus in culture; type: cell-based
Experimental: The cultivation of P. falciparum was conducted according to Trager’s method with some modification. Precisely, parasites were kept in culture flasks with RPMI1640 medium supplemented with 10% human plasma and 2% fresh human erythrocytes and incubated at 37 °C with the gas condition of 5% CO2 and 5% O2. The parasitemia (percentage of infected erythrocytes to total erythrocytes) were kept within 0.25–10%. Culture medium was replaced, and fresh erythrocytes were supplied every 2–3 days. Drug susceptibility test was conducted according to Desjardins’s method[18] with some modification. […] […] The plates were kept at 37 °C with the gas condition of 5% CO2 and 5% O2 for 72 h and then parasite growth was quantified with Makler’s method to detect plasmdoial lactate dehydrogenase[19] with some modification. Precisely, culture plates were kept in freezer overnight and then thawed at 37 °C to disrupt the erythrocytes and parasite cells. In the new 96-well titer plates, 100 μl of enzyme reaction solution (110 mM Li-lactate, 0.5 mM acetylpyridine-adenine dinucleotide, 50 mM Tris (pH 7.5), 10 mM EDTA, 50 mM KCl, and 15 g l^−1 PEG6000) and 20 µl of freeze-thaw culture were mixed in each well and then kept at room temperature for 30 min. The detection solution was prepared by mixing equal volume of 2 mg ml^−1 nitro blue tetrazolium and 0.1 mg ml^−1 phenazine ethosulfate and 20 µl of the solution was added to each well.

Dd2 = experiment: Whole parasite growth inhibition (Dd2), quoted in peer review file; type: cell-based; details: quoted by Reviewer #2 from the submitted manuscript
PvcFRS = target: T1, PvcFRS (Plasmodium vivax, UniProt A5K9S0); experiment: Incubation of PvcFRS with BRD1389 and ATP analogue AMPPNP; type: binding; details: PvcFRS with high concentrations of both BRD1389 and AMPPNP
T1 construct: Full-length PvcFRS was also purified according to the same protocol; vector-encoded tag of pETM11 (own knowledge: N-terminal His6 with TEV site); Ni-NTA purification; made in house; host or cells: E. coli strain B834
From the text: The diarylacetylene moiety of BRD1389 that occupies the L-Phe site is recognized via a bed of β-strand residues Ala541-Trp542-Gly543-Leu544 (Fig. 3b), while its edge phenyl ring is covered by Tyr497 where it provides an aromatic T-shaped π…π interaction at a distance of ~4.2 Å (Fig. 3b). In addition, the diarylacetylene moiety is surrounded by hydrophobic elements of Asn519, Gln457, and Glu459 (Fig. 3b). The urea moiety of BRD1389 is buried in a groove that is composed of Gly506, His508, Glu510, Lys512–513, Leu515, Ile552 and Pro549 (Figs. 3b, e and 4c). The urea/groove interactions are mainly stabilized by hydrophobic contacts, particularly from Pro549 and His508 while residues Val517, Ile483 and Pro549 provide sandwich support to the cyclopropoxy moiety (Figs. 3b and 4c). The urea component of BRD1389 forms hydrogen bonding interactions with main-chain N-atom of Ser545 (Fig. 3a, b). The above sets of extensive interactions position BRD1389 in an ‘L’ shaped conformation wherein its methoxy methyl group is surrounded by socket residues Arg443, Glu445, His451, and Phe455. […] This similarity highlights the importance of the three-dimensional shape and rigidity of the diazabicyclodecane scaffold in pre-orienting the molecular appendages for optimal target engagement. […]

T1 sequence (A5K464 whole entry): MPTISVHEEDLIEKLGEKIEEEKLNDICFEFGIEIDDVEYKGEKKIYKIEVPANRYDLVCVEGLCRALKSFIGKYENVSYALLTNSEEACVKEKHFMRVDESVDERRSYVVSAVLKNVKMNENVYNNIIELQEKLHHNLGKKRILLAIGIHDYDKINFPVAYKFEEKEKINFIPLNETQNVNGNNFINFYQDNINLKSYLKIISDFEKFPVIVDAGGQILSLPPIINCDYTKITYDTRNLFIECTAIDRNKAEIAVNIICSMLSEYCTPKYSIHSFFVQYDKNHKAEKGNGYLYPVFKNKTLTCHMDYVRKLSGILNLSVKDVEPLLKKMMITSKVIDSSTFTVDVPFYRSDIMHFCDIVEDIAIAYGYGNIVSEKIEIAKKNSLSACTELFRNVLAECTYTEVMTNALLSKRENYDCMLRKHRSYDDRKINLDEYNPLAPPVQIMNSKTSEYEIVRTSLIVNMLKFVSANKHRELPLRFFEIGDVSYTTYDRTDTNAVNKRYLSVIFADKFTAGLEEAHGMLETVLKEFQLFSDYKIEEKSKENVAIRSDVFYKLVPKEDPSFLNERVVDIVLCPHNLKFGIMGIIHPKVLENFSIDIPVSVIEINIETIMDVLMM
T1 sequence (A5K9S0 whole entry): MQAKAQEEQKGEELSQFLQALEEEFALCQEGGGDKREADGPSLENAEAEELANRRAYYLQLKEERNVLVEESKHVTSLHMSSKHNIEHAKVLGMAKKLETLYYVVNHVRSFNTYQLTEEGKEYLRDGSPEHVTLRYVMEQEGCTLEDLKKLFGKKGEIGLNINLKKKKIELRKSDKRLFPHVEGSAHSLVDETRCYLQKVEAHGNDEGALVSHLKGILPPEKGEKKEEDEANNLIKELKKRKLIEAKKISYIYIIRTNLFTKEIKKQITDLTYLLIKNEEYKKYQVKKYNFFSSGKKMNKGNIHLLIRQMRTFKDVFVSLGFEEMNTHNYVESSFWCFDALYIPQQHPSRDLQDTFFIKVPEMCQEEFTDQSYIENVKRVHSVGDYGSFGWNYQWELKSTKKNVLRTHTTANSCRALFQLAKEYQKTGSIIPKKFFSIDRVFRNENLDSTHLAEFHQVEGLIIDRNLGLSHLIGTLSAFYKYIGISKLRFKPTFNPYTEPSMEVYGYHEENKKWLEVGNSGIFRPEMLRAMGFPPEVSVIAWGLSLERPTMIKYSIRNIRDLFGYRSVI

SMILES: COC[C@@H]1[C@H](c2ccc(C#Cc3ccccc3)cc2)[C@@H]2CN(C(=O)Nc3ccc(OC4CC4)cc3)C[C@@H](O)[C@@H](O)CN12 [BRD1389]
- % Parasite Growth ([1]; K1, 0.000976562 ug/mL): 92.8%
- % Parasite Growth ([1]; K1, 0.00195312 ug/mL): 94.4%
- % Parasite Growth ([1]; K1, 0.00390625 ug/mL): 90.7%
- % Parasite Growth ([1]; K1, 0.0078125 ug/mL): 40.5%
- % Parasite Growth ([1]; K1, 0.015625 ug/mL): 14.2%
- % Parasite Growth ([1]; K1, 0.03125 ug/mL): 15.9%
- % Parasite Growth ([1]; K1, 0.0625 ug/mL): 4.7%
- % Parasite Growth ([1]; K1, 0.125 ug/mL): 2.9%
- % Parasite Growth ([1]; K1, 0.25 ug/mL): 2.1%
- % Parasite Growth ([1]; K1, 0.5 ug/mL): 2.6%
- % Parasite Growth ([1]; K1, 1 ug/mL): 2.6%
- IC50 ([1]; Plasmodium falciparum, K1): 0.00685 µg/mL and 12.1 nM
- EC50 ([1]; Plasmodium falciparum, K1, 72 h): 12 nM
- Dd2 growth inhibitory activity (Dd2): < 1 nM
- Binding observed on co-incubation (PvcFRS): observed only binding of BRD1389
